Like-named read-outs stand apart in the source and are kept apart here.
Columns and labels:
[1] = tested on: MDA-MB 231 breast tumor cells; assay type: in vivo, chick; details: for Average tumor weight: 7 day incubation
Experimental: FIG. 6: Inhibition of CAM tumor growth by C16Y. MDA-MB 231 breast tumor cells were mixed with C16 or C16Y peptides (at either 50 or 100 μg/ml), then mixed with 1:1 with neutralized collagen I solution. The collagen I gel was overlayed with the CAM of a 7-day-old embryo for 7 days, after which the membrane was fixed and tumor cells were removed and weighed. In the absence of either peptide, average tumor weight was 5.40±0.59 mg. […] C16Y peptide inhibited tumor growth by approximately 40% at both concentrations tested. Bars represent ±SD.
The effect of C16Y on tumor growth in vivo was analyzed using the CAM assay (Gho 2001). MDA-MB 231 breast tumor cells (a gift of Dan Welch, Pennsylvania State University, University Park, Pa.) (1×10^6 cells/0.1 ml) in RPMI 1640 were mixed with 0, 50, or 100 μg/ml of C16 or C16Y, and then mixed 1:1 with a neutralized collagen I solution (4.6 mg/ml collagen type 1). This collagen I gel was overlayed with the CAM of a 7-day-old embryo. After a 7 day incubation, the membrane was fixed and tumor cells were removed and weighed. This experiment was repeated twice, with each data point tested in at least six replicates.

[2] = tested on: MDA-MB 231 breast cancer cells; test: Primary tumor growth in nude mice (s.c. MDA-MB 231); assay type: in vivo; details: 1 mg/day i.p.
Experimental: FIG. 7: Inhibition of primary tumor growth by C16Y. MDA-MB 231 cancer cells were injected subcutaneously (s.c.) into nude mice and the tumors were allowed to grow until they reached 200-300 mm^3. Mice were then treated daily for 7-10 days with C16 (1 mg/day) or C16Y peptides (0.2, 0.5, or 1 mg/day) by intraperitoneal (i.p.) injection. Control mice were injected with water only. Tumor size was measured at 0, 3, 6, and 9 days after peptide injections began. A. Mice were treated with 1 mg/day of either C16 or C16Y peptide for 10 days. […] B. Mice were treated with C16Y peptide at varying concentrations for 7 days. C16Y decreased tumor size at all concentrations tested during the 7 days it was administered. Tumor growth resumed when administration of the C16Y peptide was halted, with tumor size increasing more rapidly in mice treated with lower dosages of C16Y. Bars represent ±SD.
MDA-MB 231 breast cancer cells (5×10^5 cells) mixed with Matrigel (1:4) were injected subcutaneously (s.c.) into nude mice. […] Tumor growth was monitored with a caliper, with measurements being taken on days 0, 3, 6, and 9 after the first peptide injection. Tumor volume was determined using the formula width^2×length×0.52. […] Vessel number was determined by staining sections with a CD-31 antibody (Nomizu 2001) and counting 6 fields per section per mouse (n=2 section/mouse; total 3 mice).

MDA-MB 231 cells = test: Tumor cell proliferation assay (Cell Titer 96 Aqueous); assay type: cell-based; details: 100 μg/ml, 2-72 hours
Experimental: A proliferation assay was performed to determine whether the tumor inhibition discussed in Example 6 was the result of angiogenesis inhibition or some effect on cell proliferation. Proliferation of MDA-MB 231 cells was quantified using a Cell Titer 96 Aqueous Cell Proliferation assay kit (Promega, Madison, Wis.). Cells were plated on four 96-well dishes at 5×10^3 cells/well and cultured in AIM-V serum-free medium (Life Technologies, Inc., Gaithersburg, Md.). After 1 hour, peptides C16 and C16Y were added at a final concentration of 100 μg/ml. A separate dish was used to quantitate proliferation at 2, 24, 48, and 72 hours by reading absorbance at 490 nm on an Emax plate reader. Each experiment was repeated in triplicate two times.

HUVECs = test: Endothelial cell tube-forming assay on Matrigel; assay type: cell-based, human; design: key to Disruption of tube formation / Activity (tube formation, truncated C16Y peptides): +: tubes slightly affected; ++: tubes moderately affected; +++: tubes disrupted; ++++: tubes completely disrupted; −: tubes resemble control; details: for Disruption of tube formation: 16 hours
Experimental: FIG. 3: Disruption of endothelial cell tube formation by C16Y peptide. 48-well plates were coated with 200 μl of Matrigel per well. Each well was treated with RPMI containing 24,000 human umbilical vein endothelial cells (HUVECS) and 100 mg/L endothelial cell growth factor in the presence of 10-75 μg/ml of C16 or scrambled C16 peptide for 16 hours. Control wells contained medium only. Cells were fixed and stained, and tube formation was scored by a blinded observer.
Tube-forming assays were performed as described previously (Ponce 2001). 48-well plates were coated with 200 μl/well of Matrigel (Gho 2001; Kubota 1988), a basement membrane matrix. HUVECs (24,000 cells/well) were plated in RPMI 1640 containing 10% bovine calf serum, defined and supplemented (HyClone Laboratories, Inc., Logan, Utah), along with 100 mg/liter of endothelial cell growth factor (Collaborative Biomedical). C16 or scrambled C16 peptides were added at concentrations ranging from 10-75 μg/ml. Control wells contained medium only. After 16 hours, cells were fixed and stained with Diff-Quick fixative (methanol) and solution II (6.25% (w/v) each of azure A and methylene blue) (Dade A G, Dudingen, Switzerland), and tube formation was scored by a blinded observer. Each peptide was tested at least in triplicate, and the assays were repeated a minimum of three times.
Tube formation assays were repeated using truncated versions of the C16Y peptide to determine the minimal active sequence of the peptide. The carboxyl end of C16Y was not necessary for activity, whereas the amino terminal aspartic acid was required. The minimal active sequence for the C16Y peptide is shown in SEQ ID NO: 2. Each of the peptides containing at least this 8 amino acid sequence (SEQ ID NOs: 1-5) inhibited tube formation.

[3] = tested on: C16-induced angiogenesis in the chick CAM; test: CAM assay, C16-induced angiogenesis; assay type: in vivo; details: peptide alone (C16: 0.5 μg)
Experimental: FIG. 4: Inhibition of C16-induced angiogenesis by C16Y. 0.5 μg of angiogenic stimulator (C16 peptide) and varying concentrations of either C16S or C16Y peptides were applied to 10-day-old embryonated eggs in 5 μl of water. After 3 days, microphotographs were taken of the eggs to determine angiogenesis levels. Negative control eggs were treated with water only (panel a), while positive control eggs were treated with bFGF only (not shown). As expected, C16 peptide administered alone stimulated angiogenesis (panel d). […] When the amount of inhibitor peptide was lowered to 0.05 μg, C16Y peptide continued to inhibit angiogenesis (panel f), while C16S peptide had no effect (panel c).
The CAM assay was performed using 10-day-old embryonated eggs (CBT, Charlestown, Md.) as described previously (Gho 1999). On embryonal day 3, approximately 4 ml of ovalbumin was removed from each egg. After opening windows on embryonal day 10, the angiogenic stimulus (C16) and test competitor peptides in 5 μl of distilled water were applied to the CAM after drying on 13-mm diameter quartered plastic coverslips (Thermanox; Nalge, NUNC International, Naperville, Ill.). Three days later, the eggs were scored for a positive response and photographed. The positive control was bFGF, and the negative control was the vehicle water. Experiments were repeated twice using a minimum of 11 eggs for each data point.

KAFDITYVRLKF [Peptide C16, angiogenic peptide from the γ1 chain of laminin-1]
Average tumor weight ([1]; 50 μg/ml peptide): 5.45 ± 0.84 mg
Average tumor weight ([1]; 100 μg/ml peptide): 5.85 ± 0.54 mg
Vessels observed in tumors ([1]; P≦0.027): 9.6±0.23
Tumor size relative to original size ([2]; 7 days, stated jointly with control mice): 1.7-2.5 times their original size
Tumor growth ([2]; after 7 days): did not significantly affect tumor growth
Effect on MDA-MB 231 cell proliferation (MDA-MB 231 cells): Neither C16 nor C16Y altered MDA-MB 231 cell proliferation
Dose at which tube formation is disrupted (lowest active) (HUVECs; 10-75 μg/ml tested): 50 µg/mL
Disruption of tube formation (HUVECs; peptide concentration 10 μg/ml): −
Disruption of tube formation (HUVECs; peptide concentration 25 μg/ml): −
Disruption of tube formation (HUVECs; peptide concentration 50 μg/ml): +
Disruption of tube formation (HUVECs; peptide concentration 75 μg/ml): +++
Angiogenesis with peptide administered alone [3]: capable of inducing angiogenesis
